Reference: patent publication US7118895B2, “Process for producing aglycon by using diglycosidase and flavor-improved food containing the aglycon and converting agent to be used in the process” (Amano Enzyme Inc., priority 2000, dated 2006)

Tested on: Crude diglycosidase
Test: Examination of temperature in the conversion into isoflavone aglycons by diglycosidase using soybean materials
Format: biochemical, Penicillium multicolor IAM7153
Design: Decomposition efficiency of glycitin family in roasted soy flour / Decomposition efficiency of daidzin family in roasted soy flour / Decomposition efficiency of genistin family in soymilk / Decomposition efficiency of daidzin family in soymilk / Decomposition efficiency of glycitin family in defatted soybean / Decomposition efficiency of daidzin family in defatted soybean: concentration or dose not given beside the values
How it was run: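 Temperature series (30-80° C.) of crude diglycosidase, diluted to 1.88 AU/mL in 20 mM acetate pH 4.0, acting on roasted soy flour, soymilk, defatted soybean or soy protein concentrate. Samples quenched with ethanol after 0-6 h, centrifuged, filtered and analyzed by HPLC for glycosides versus aglycons.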

[1] = 30 °C, heat treatment of enzyme: no, 0 h
[2] = 30 °C, heat treatment of enzyme: no, 1 h
[3] = 30 °C, heat treatment of enzyme: no, 3 h
[4] = 30 °C, heat treatment of enzyme: no, 6 h
[5] = 30 °C, heat treatment of enzyme: yes, 6 h
[6] = 45 °C, heat treatment of enzyme: no, 0 h
[7] = 45 °C, heat treatment of enzyme: no, 1 h
[8] = 45 °C, heat treatment of enzyme: no, 3 h
[9] = 45 °C, heat treatment of enzyme: no, 6 h
[10] = 45 °C, heat treatment of enzyme: yes, 6 h
[11] = 55 °C, heat treatment of enzyme: no, 0 h
[12] = 55 °C, heat treatment of enzyme: no, 1 h
[13] = 55 °C, heat treatment of enzyme: no, 3 h
[14] = 55 °C, heat treatment of enzyme: no, 6 h
[15] = 55 °C, heat treatment of enzyme: yes, 6 h
[16] = 65 °C, heat treatment of enzyme: no, 0 h
[17] = 65 °C, heat treatment of enzyme: no, 1 h
[18] = 65 °C, heat treatment of enzyme: no, 3 h
[19] = 65 °C, heat treatment of enzyme: no, 6 h
[20] = 65 °C, heat treatment of enzyme: yes, 6 h
[21] = 80 °C, heat treatment of enzyme: no, 0 h
[22] = 80 °C, heat treatment of enzyme: no, 1 h
[23] = 80 °C, heat treatment of enzyme: no, 3 h
[24] = 80 °C, heat treatment of enzyme: no, 6 h
[25] = 80 °C, heat treatment of enzyme: yes, 6 h

Compound: COc1cc2c(=O)c(-c3ccc(O)cc3)coc2cc1O[C@@H]1O[C@H](CO)[C@@H](O)[C@H](O)[C@H]1O [glycitin]
- Decomposition efficiency of glycitin family in defatted soybean (30° C., heat treatment of enzyme no, reaction time 0 h): not detected
- Decomposition efficiency of glycitin family in defatted soybean (30° C., heat treatment of enzyme no, reaction time 1 h): not detected
- Decomposition efficiency of glycitin family in defatted soybean (30° C., heat treatment of enzyme no, reaction time 3 h): not detected
- Decomposition efficiency of glycitin family in defatted soybean (30° C., heat treatment of enzyme no, reaction time 6 h): not detected
- Decomposition efficiency of glycitin family in defatted soybean (30° C., heat treatment of enzyme yes, reaction time 6 h): not detected
- Decomposition efficiency of glycitin family in concentrated soybean protein [1]: 52.2%
- Decomposition efficiency of glycitin family in roasted soy flour [1]: 50.9%
- Decomposition efficiency of glycitin family in soymilk [1]: 43.9%
- Decomposition efficiency of glycitin family in concentrated soybean protein [2]: 47.1%
- Decomposition efficiency of glycitin family in roasted soy flour [2]: 34.8%
- Decomposition efficiency of glycitin family in soymilk [2]: not detected
- Decomposition efficiency of glycitin family in concentrated soybean protein [3]: 39.1%
- Decomposition efficiency of glycitin family in roasted soy flour [3]: not detected
- Decomposition efficiency of glycitin family in soymilk [3]: not detected
- Decomposition efficiency of glycitin family in concentrated soybean protein [4]: 28.4%
- Decomposition efficiency of glycitin family in roasted soy flour [4]: not detected
- Decomposition efficiency of glycitin family in soymilk [4]: not detected
- Decomposition efficiency of glycitin family in concentrated soybean protein [5]: 52.8%
- Decomposition efficiency of glycitin family in roasted soy flour [5]: 51.4%
- Decomposition efficiency of glycitin family in soymilk [5]: 44.5%
- Decomposition efficiency of glycitin family in defatted soybean (45° C., heat treatment of enzyme no, reaction time 0 h): not detected
- Decomposition efficiency of glycitin family in defatted soybean (45° C., heat treatment of enzyme no, reaction time 1 h): not detected
- Decomposition efficiency of glycitin family in defatted soybean (45° C., heat treatment of enzyme no, reaction time 3 h): not detected
- Decomposition efficiency of glycitin family in defatted soybean (45° C., heat treatment of enzyme no, reaction time 6 h): not detected
- Decomposition efficiency of glycitin family in defatted soybean (45° C., heat treatment of enzyme yes, reaction time 6 h): not detected
- Decomposition efficiency of glycitin family in concentrated soybean protein [6]: 52.3%
- Decomposition efficiency of glycitin family in roasted soy flour [6]: 51.3%
- Decomposition efficiency of glycitin family in soymilk [6]: 42.6%
- Decomposition efficiency of glycitin family in concentrated soybean protein [7]: 30.2%
- Decomposition efficiency of glycitin family in roasted soy flour [7]: 12.4%
- Decomposition efficiency of glycitin family in soymilk [7]: not detected
- Decomposition efficiency of glycitin family in concentrated soybean protein [8]: 18.8%
- Decomposition efficiency of glycitin family in roasted soy flour [8]: 12.4%
- Decomposition efficiency of glycitin family in soymilk [8]: not detected
- Decomposition efficiency of glycitin family in concentrated soybean protein [9]: 7.5%
- Decomposition efficiency of glycitin family in roasted soy flour [9]: 5.9%
- Decomposition efficiency of glycitin family in soymilk [9]: not detected
- Decomposition efficiency of glycitin family in concentrated soybean protein [10]: 53.2%
- Decomposition efficiency of glycitin family in roasted soy flour [10]: 49.8%
- Decomposition efficiency of glycitin family in soymilk [10]: 45.4%
- Decomposition efficiency of glycitin family in defatted soybean (55° C., heat treatment of enzyme no, reaction time 0 h): not detected
- Decomposition efficiency of glycitin family in defatted soybean (55° C., heat treatment of enzyme no, reaction time 1 h): not detected
- Decomposition efficiency of glycitin family in defatted soybean (55° C., heat treatment of enzyme no, reaction time 3 h): not detected
- Decomposition efficiency of glycitin family in defatted soybean (55° C., heat treatment of enzyme no, reaction time 6 h): not detected
- Decomposition efficiency of glycitin family in defatted soybean (55° C., heat treatment of enzyme yes, reaction time 6 h): not detected
- Decomposition efficiency of glycitin family in concentrated soybean protein [11]: 52.3%
- Decomposition efficiency of glycitin family in roasted soy flour [11]: 50.5%
- Decomposition efficiency of glycitin family in soymilk [11]: 47.8%
- Decomposition efficiency of glycitin family in concentrated soybean protein [12]: 14.2%
- Decomposition efficiency of glycitin family in roasted soy flour [12]: not detected
- Decomposition efficiency of glycitin family in soymilk [12]: not detected
- Decomposition efficiency of glycitin family in concentrated soybean protein [13]: not detected
- Decomposition efficiency of glycitin family in roasted soy flour [13]: not detected
- Decomposition efficiency of glycitin family in soymilk [13]: not detected
- Decomposition efficiency of glycitin family in concentrated soybean protein [14]: not detected
- Decomposition efficiency of glycitin family in roasted soy flour [14]: not detected
- Decomposition efficiency of glycitin family in soymilk [14]: not detected
- Decomposition efficiency of glycitin family in concentrated soybean protein [15]: 52.9%
- Decomposition efficiency of glycitin family in roasted soy flour [15]: 51.7%
- Decomposition efficiency of glycitin family in soymilk [15]: 53.5%
- Decomposition efficiency of glycitin family in defatted soybean (65° C., heat treatment of enzyme no, reaction time 0 h): not detected
- Decomposition efficiency of glycitin family in defatted soybean (65° C., heat treatment of enzyme no, reaction time 1 h): not detected
- Decomposition efficiency of glycitin family in defatted soybean (65° C., heat treatment of enzyme no, reaction time 3 h): not detected
- Decomposition efficiency of glycitin family in defatted soybean (65° C., heat treatment of enzyme no, reaction time 6 h): not detected
- Decomposition efficiency of glycitin family in defatted soybean (65° C., heat treatment of enzyme yes, reaction time 6 h): not detected
- Decomposition efficiency of glycitin family in concentrated soybean protein [16]: 52.2%
- Decomposition efficiency of glycitin family in roasted soy flour [16]: 50.9%
- Decomposition efficiency of glycitin family in soymilk [16]: 43.9%
- Decomposition efficiency of glycitin family in concentrated soybean protein [17]: 5.2%
- Decomposition efficiency of glycitin family in roasted soy flour [17]: not detected
- Decomposition efficiency of glycitin family in soymilk [17]: not detected
- Decomposition efficiency of glycitin family in concentrated soybean protein [18]: not detected
- Decomposition efficiency of glycitin family in roasted soy flour [18]: not detected
- Decomposition efficiency of glycitin family in soymilk [18]: not detected
- Decomposition efficiency of glycitin family in concentrated soybean protein [19]: not detected
- Decomposition efficiency of glycitin family in roasted soy flour [19]: not detected
- Decomposition efficiency of glycitin family in soymilk [19]: not detected
- Decomposition efficiency of glycitin family in concentrated soybean protein [20]: 52.5%
- Decomposition efficiency of glycitin family in roasted soy flour [20]: 50.3%
- Decomposition efficiency of glycitin family in soymilk [20]: 56.8%
- Decomposition efficiency of glycitin family in defatted soybean (80° C., heat treatment of enzyme no, reaction time 0 h): not detected
- Decomposition efficiency of glycitin family in defatted soybean (80° C., heat treatment of enzyme no, reaction time 1 h): not detected
- Decomposition efficiency of glycitin family in defatted soybean (80° C., heat treatment of enzyme no, reaction time 3 h): not detected
- Decomposition efficiency of glycitin family in defatted soybean (80° C., heat treatment of enzyme no, reaction time 6 h): not detected
- Decomposition efficiency of glycitin family in defatted soybean (80° C., heat treatment of enzyme yes, reaction time 6 h): not detected
- Decomposition efficiency of glycitin family in concentrated soybean protein [21]: 52.3%
- Decomposition efficiency of glycitin family in roasted soy flour [21]: 51.3%
- Decomposition efficiency of glycitin family in soymilk [21]: 42.6%
- Decomposition efficiency of glycitin family in concentrated soybean protein [22]: 39.7%
- Decomposition efficiency of glycitin family in roasted soy flour [22]: 19.2%
- Decomposition efficiency of glycitin family in soymilk [22]: 10.7%
- Decomposition efficiency of glycitin family in concentrated soybean protein [23]: 40.5%
- Decomposition efficiency of glycitin family in roasted soy flour [23]: 20.5%
- Decomposition efficiency of glycitin family in soymilk [23]: 22.5%
- Decomposition efficiency of glycitin family in concentrated soybean protein [24]: 41.7%
- Decomposition efficiency of glycitin family in roasted soy flour [24]: 33.6%
- Decomposition efficiency of glycitin family in soymilk [24]: 44.2%
- Decomposition efficiency of glycitin family in concentrated soybean protein [25]: 53.6%
- Decomposition efficiency of glycitin family in roasted soy flour [25]: 50.6%
- Decomposition efficiency of glycitin family in soymilk [25]: 71.4%
